The values that follow come from US20250241840A1, “ORALLY ADMINISTRATED COSMETIC COMPOSITIONS TO TREAT SKIN DRYNESS” (IIAA Limited, priority 2022, published 2025).

In assay [1] the test system is human subjects with dry skin and mild to moderate atopic dermatitis. The conditions noted are these: 200 mg/day GLA orally; measurements at weeks 0, 4, 8, 12 and 16; cited from earlier work.
The subject of the next assay is skin of the cheek. Kind of assay: Example 1: 28-day oral hyaluronic acid study, hydration, TEWL and wrinkle depth of the skin of the cheek. To be noted: 200 mg HA orally once daily, 28 days. In kind it is in vivo, human. How it is done: A cachet containing 200 mg hyaluronic acid (HA) was administered orally, once daily, to 30 subjects for 28 days. The hyaluronic acid administered in this manner consisted of hyaluronic acid molecules having molecular weights in a range of from 50 to 2200 kDa. The hydration, TEWL and wrinkle depth of the skin of the cheek of each subject was measured on the first day of the 28-day study and on the last day of the 28-day study. A Courage+Khazaka Dual 580 Multi Probe Adapter System fitted with a Corneometer™ CM 825 probe (obtainable from Courage & Khazaka Electronic GmbH of Mathias-Brüggen-Straße 91, 50829 Köln, Germany) was used to measure the surface hydration of the subjects' skin. A Courage+Khazaka Dual 580 Multi Probe Adapter System fitted with a Tewameter™ 300 probe was used to measure the TEWL of the subjects' skin. A PRIMOS 3D™ optical skin measurement device was used to measure the depth and width of wrinkles in the subjects' skin. The average percentage change in each of the parameters measured from the first day of the 28-day study to the last day of the 28-day study was calculated.

Consider `CCCCC/C=C\C/C=C\C/C=C\CCCCC(=O)O` [GLA, all-cis-6,9,12-octadecatrienoic acid], for which, in assay [1], the “Effect on TEWL” value was “reduce TEWL”.
In the case of hyaluronic acid, the “Skin surface hydration, average percentage change over the course of the 28-day study” value is reported as “+10.6%” with skin of the cheek (Corneometer CM 825) and “+10.6%” in the assay on skin of the cheek (Corneometer CM 825, listed as HA). Besides, the “Wrinkle depth, average percentage change over the course of the 28-day study” value with skin of the cheek (PRIMOS 3D) is −18.8%. Besides, the “TEWL, average percentage change over the course of the 28-day study” value in the assay on skin of the cheek (Tewameter 300) is −3.9%.
